The nature of the data set: physchem. Particulars: octan-1-ol/water, pH 7.4, LogD7.4.
A word on the logD: it is the decadic logarithm of the distribution of all forms, ionised or not, between an organic phase and buffer at a given pH. Turning to `C/N=C(\S)n1nc(-c2ccc(Cl)cc2)nc1N`, the logD stood at 4.12.

For the molecule `Fc1cc(F)cc(-c2cc(N(CCCN3CCCCCC3)Cc3ccc4c(c3)OCO4)on2)c1`, the logD was 3.84.

Turning to `N#Cc1ccc(-c2csc(Nc3ccc(O)cc3)n2)cc1`, the logD was determined as 4.1.

`CCN(C(=O)NCc1ccc(F)cc1)C1CCN(CCC(c2ccccc2)c2ccccc2)CC1` displayed a log distribution coefficient (logD) of 3.9.

Molecule `COc1cccc(Nc2nc(NCC3CCCO3)c3ccccc3n2)c1` (stereo not drawn) gave a logD of 3.9.

The molecule `N[C@@H](Cc1ccc(F)cc1)C(=O)O` displayed a logD of -1.06.

Take `O=C(CCCc1ccncc1)N1CCN(c2ccc(Cl)cc2Cl)CC1`: the log distribution coefficient (logD) is 3.93.

Take `CC(C)(C)NC(=O)C(c1ccncc1)N(Cc1ccco1)C(=O)c1ccc(-c2ccccc2)[nH]1` (stereo not drawn): the logD was 4.13.

On to `Cc1ccc(C(=O)N2CCC(C(=O)c3ccc(Cl)cc3)CC2)cc1`, for which the logD came to 3.79.

In turn, `O=C(CC12CC3CC(CC(C3)C1)C2)Nc1cccc2ncccc12` yielded a logD of 3.83.

Regarding `Clc1ccc(-c2cn3ccccc3n2)cc1`, the logD was 4.

In turn, `COc1ccc(/C=C2/CCc3ccccc3C2=O)cc1CN1CCOCC1` displayed a logD of 3.8.

Consider `COc1ccc(Cl)cc1C(=O)Nc1nc2ccccc2[nH]1`, for which the logD is 4.05.

Regarding `CN1CCOc2nc(C#Cc3ccccc3)ccc21`, the logD is 3.8.

`CC[C@H](NC(=O)c1c([S+]([O-])C(C)C)c(-c2ccccc2)nc2ccccc12)c1ccccc1` (stereo partly drawn): the logD came to 3.81.

`CC1CC(CN)CC(CO)C1` (stereo not drawn): the logD was -1.4.

Molecule `Cc1ccc(CO)cc1N(C)c1ccnc(Nc2cc(N3CCOCC3)nc(N3CCOCC3)n2)n1` had a logD of 3.9.

Turning to `N#Cc1ccc(OCC(=O)O)c(-c2ccccc2)c1`, the logD was -1.08.

As to `CCCNC(=O)c1nnc2c(-c3ccccc3)cccc2c1N`, the logD amounted to 3.8.

`COc1ccc(OC)c(-c2c(F)ccc3c(N)c(C(=O)NC(C)C)nnc23)c1` gave a logD of 3.77.

For the molecule `CCN(C(=O)NCc1ccccc1)C1CCN(CCC(c2ccccc2)c2ccccc2)CC1`, the logD was found to be 4.

The molecule `COc1cc(N2CCN(C(C)=O)CC2)ccc1Nc1ncc(Cl)c(-c2cnc3ccc(N(C)C)cn23)n1` returned a logD of 4.1.

`CCN(C(=O)Cc1ccc(C#N)cc1)C1CCN(CCC(c2ccccc2)c2ccccc2)CC1` gave a logD of 3.9.

`COC(=O)c1ccc(CC(=O)N(C)C2CCN(CCC(c3ccccc3)c3ccccc3)CC2)cc1` yielded a pH-dependent lipophilicity (logD) of 4.

As for `O=C(O)CSc1c[nH]c2ccccc12`, the logD is -1.31.

For `N#Cc1cccc(C(=O)Nc2cc(-c3ccccc3)nn2-c2ccccc2)c1`, the logD was 3.82.

In turn, `Oc1ccc(-c2ccc3cc(O)ccc3c2)cc1` came in with a pH-dependent lipophilicity (logD) of 4.

As for `COc1ccc(-c2ccccc2)cc1N1CC(=O)NS1(=O)=O`, the logD was -1.01.

In the case of `CN(C)CCCNC(=O)c1nc(Cl)c(N)nc1N`, the logD is -1.

For the molecule `Oc1ccc(C(c2ccc(O)cc2)C(Cl)(Cl)Cl)cc1`, the logD stood at 3.86.

In turn, `O=c1cc(N2CCOCC2)oc2c(-c3cccc4c5c(sc34)CCCC5)cccc12` had a logD of 4.1.

Take `O=C(Nc1ccc(C(F)(F)F)c(Cl)c1)N1CCN(C[C@@H]2CCCN(C3CC3)C2)CC1`: the pH-dependent lipophilicity (logD) amounted to 4.06.

With `CC(C)Cn1c(=O)n(C)c(=O)c2c(SCCCO)c(Cc3ccccc3C(F)(F)F)sc21`, the logD stood at 4.05.

`COc1ccc(-c2cccc3c(N)c4c(nc23)CN(C2CCC2)C4=O)c(C)n1` gave a logD of 3.92.

As to `C[C@@H]1CN(c2noc(C(F)(F)F)n2)CCN1c1ncc(OCc2ccncc2C#N)cn1`, the logD came out at 3.95.

In turn, `Cn1ncnc1-c1c2c(=O)n(C)c(=O)n(CC3CC3)c2nn1Cc1ccnc2ccc(Cl)cc12` returned a logD of 3.8.

On to `C#CCn1c(=O)c2c(-c3cc(C#N)cn3C)n(Cc3ccnc4ccc(Cl)cc34)nc2n(CC2CC2)c1=O`, for which the logD is 3.96.

With `CCn1c(=O)c2c(-c3cc(C#N)cn3C)n(Cc3ccnc4ccc(Cl)cc34)nc2n(CC2CC2)c1=O`, the log distribution coefficient (logD) was 4.13.

For the molecule `C=CCn1c(=O)c2c(-c3nc(C#N)cn3C)n(Cc3ccnc4ccc(Cl)cc34)nc2n(CC2CC2)c1=O`, the logD turned out to be 3.92.

`CC(C)Cn1c(=O)n(C)c(=O)c2c(-c3cncn3C)n(Cc3cccc4ccccc34)nc21` registered a pH-dependent lipophilicity (logD) of 4.1.

On to `Cc1cn([C@H]2CCCN(Cc3ccc(C(=O)O)c(Oc4cccc(F)c4)c3)C2)c(=O)[nH]c1=O`, for which the logD was -1.03.

For `Oc1nc(S)nc2nc[nH]c12`, the logD is -1.48.

On to `COc1cc2ncnc(N3CC[C@@H](Oc4cnc5ccccc5n4)C3)c2cc1OC`, for which the log distribution coefficient (logD) was 4.04.

In turn, `O=C(NCCCNc1nc(Nc2cccc(NC(=O)N3CCCC3)c2)ncc1Br)c1cccs1` gave a logD of 4.13.

In turn, `O=C(NC[C@@H](O)CN1CCC(Oc2ccc(Cl)c(Cl)c2)CC1)c1c[nH]c(=O)c2ccc(F)cc12` registered a logD of 3.93.

In turn, `O=C(NCc1ccco1)c1ccc2[nH]c(COc3ccc(C45CC6CC(CC(C6)C4)C5)cc3)nc2c1` showed a logD of 4.

For `COc1cc(C(=O)Nc2ccc(N3CCOCC3)cc2)nc2c(N3CCN(C)CC3)cc(F)cc12`, the logD worked out at 3.85.

On to `NC1(C(=O)NC(c2ccccc2)c2ccc(Cl)cc2)CCN(c2ncnc3[nH]ccc23)CC1` (stereo not drawn), for which the logD was found to be 4.1.

`CCC[C@H](CO)Nc1nc(SCc2ccccc2)nc2nc(N)sc12` returned a logD of 3.8.

`O=C1c2ccccc2CN1C1CCN(CCC(c2ccccc2)c2ccccc2)CC1` yielded a logD of 4.1.

In turn, `Clc1cccc(Cl)c1/C(=C/n1cncn1)OC1CCCCCC1` came in with a logD of 4.1.

`Clc1cccc(Nc2ncnc3ccccc23)c1` displayed a log distribution coefficient (logD) of 3.9.

The molecule `O=C1CCC(=O)N1C(CCc1ccncc1)COc1ccc(-c2cccc([N+](=O)[O-])c2)cc1` (stereo not drawn) had a logD of 3.88.

For `CNC(=O)c1cccc(NC(=O)Nc2cccc(C#N)c2)c1CN1CCC(Cc2ccc(F)cc2)CC1`, the logD was found to be 3.97.

`O=C(C(=O)c1cc(Br)ccc1O)c1cc(Br)ccc1O` came in with a logD of 3.85.

For the molecule `CC(C)Cn1c(=O)n(C)c(=O)c2c(C(=O)N3CCCC3)c(Cc3ccccc3C(F)(F)F)sc21`, the logD came out at 3.8.

For `Cn1c(N)nc(CCc2cccc(-c3ccccc3)c2)cc1=O`, the logD amounted to 3.8.

As to `Cc1ccc(NC(=O)CCC2CCCCC2)cc1NC(=O)c1ccc(O)cc1`, the logD stood at 4.13.

As to `Oc1ccc2nc(-c3ccccc3)sc2c1`, the logD turned out to be 3.99.

On to `Cc1ccc(NC(=O)c2cccc(C(F)(F)F)c2)cc1NC(=O)c1ccc2ncccc2c1`, for which the logD worked out at 3.87.

`Brc1cnc(NCc2ccccc2)nc1Nc1cc(C2CC2)n[nH]1` gave a logD of 4.11.

As for `O=c1[nH]ccc2nc(-c3ccc(CN4CCC(c5n[nH]c(-c6ccccn6)n5)CC4)cc3)c(-c3ccccc3)cc12`, the logD is 3.9.

`CC[C@H](NC(=O)c1c(N)c(-c2cccc(F)c2)nc2ccccc12)c1ccccc1` yielded a logD of 4.05.

With `COc1cc(C(=O)Nc2ccc(Cl)c(-c3nc4ccccc4[nH]3)c2)cc(OC)c1OC`, the logD was 3.83.

Turning to `Oc1ccc2[nH]c(CN3CCC(Cc4ccc(F)cc4)CC3)nc2c1`, the logD was found to be 3.8.

`Nc1ccc2[nH]c(Cc3ccc(Oc4ccccc4)cc3)nc2c1` returned a logD of 3.8.

Turning to `Cn1nc(C(C)(C)C)cc1NC(=O)Nc1ccc(Cl)cc1`, the logD is 3.97.

For the molecule `CC(C)(C)C(=O)NCc1ccc(NC(=O)N2CCCC(O)(c3ccc(Cl)c(Cl)c3)C2)cc1` (stereo not drawn), the pH-dependent lipophilicity (logD) amounted to 3.93.

(Values after ChEMBL document CHEMBL3301361, “Experimental in vitro DMPK and physicochemical data on a set of publicly disclosed compounds”.)
